Assay results reported in PubChem BioAssay (NCI).
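Cultured in 96-well plates, cells were exposed to test compound for 48 hours across five concentrations. TGI marks complete inhibition of growth.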

Key:
Experiment in all cases: NCI anticancer screen, dose series, 48 h
SN12C renal = system: SN12C renal
KM12 colon = system: KM12 colon
HT29 colon = system: HT29 colon
ACHN renal = system: ACHN renal
PC-3 prostate = system: PC-3 prostate
MDA-N = system: MDA-N
K-562 leukemia = system: K-562 leukemia
HCT-15 colon = system: HCT-15 colon
T-47D breast = system: T-47D breast
SNB-75 CNS = system: SNB-75 CNS

Row | Compound | TGI (SN12C renal) [µM] | TGI (KM12 colon) [µM] | TGI (HT29 colon) [µM] | TGI (ACHN renal) [µM] | TGI (PC-3 prostate) [µM] | TGI (MDA-N) [µM] | TGI (K-562 leukemia) [µM] | TGI (HCT-15 colon) [µM] | TGI (T-47D breast) [µM] | TGI (SNB-75 CNS) [µM]
1 | O=[N+]([O-])c1cc(-c2ccc([As](=O)(O)O)cc2)ccc1[As](=O)(O)O | > 100 | > 100 | > 100 | > 100 | > 100 | > 100 | > 100 | > 100 | > 100 | –
2 | CC(=O)O[C@H]1C(=O)[C@@]2(C)C(C(OC(=O)c3ccccc3)[C@]3(O)CC(OC(=O)C(O)C(NC(=O)c4cccc(Cl)c4)c4ccccc4)C(C)=C1C3(C)C)[C@]1(OC(C)=O)CO[C@@H]1C[C@@H]2O (some centres undefined) | > 10 | > 10 | > 10 | > 10 | > 10 | 0.334 | > 10 | > 10 | – | 8.9
3 | CCOC1=C2N=C(C(CC)c3ccc(F)cc3)N=C2C(=O)c2ccccc21 (centres undefined) | > 66.7 | > 56.5 | 45.3 | > 81.6 | – | – | > 100 | > 100 | – | 81.5
4 | CCN1CC2(CO)CCC(OC)C34C5CC6C(OC)CC(O)(C5C6OC)C(O)(C(OC)C23)C14 (centres undefined) | > 375 | > 375 | > 375 | – | – | – | > 375 | > 375 | – | > 375
5 | COC(=O)c1cc(NC(=O)Cn2c3ccccc3c3ccccc32)cn1C | > 100 | > 100 | > 100 | > 100 | > 100 | > 100 | > 100 | > 100 | > 100 | –
6 | Nc1nc2c(nnn2C2C=C(CO)C(O)C2O)c(=O)[nH]1 (centres undefined) | > 100 | > 100 | > 100 | > 100 | – | – | > 100 | > 100 | – | > 100
7 | CC(C)c1cccc(C(C)C)c1NC(=O)/C(Cc1nc2ccc(Cl)cc2[nH]c1=O)=N\NC(=O)C[N+](C)(C)C | > 100 | > 100 | > 100 | > 100 | – | – | > 100 | – | – | –
8 | O=C(C#Cc1ccccc1)Nc1ccccc1CC(c1c[nH]c2ccccc12)c1c[nH]c2ccccc12 | 30 | 44.4 | 87.9 | – | – | – | 36.5 | – | – | > 100
9 | CN(C)CCNC(=O)c1cccc2c(NC(CCCN=C(N)N)C(=O)O)c3ccccc3nc12 (centres undefined) | > 100 | 61.5 | 14.1 | > 100 | > 100 | > 100 | > 100 | > 100 | – | 34.5
10 | C=C1C(=O)OC2C=C(C)CC3C=C(CCC=C(C)CCC12)C(=O)O3 (centres undefined) | 157 | 109 | 131 | – | – | – | 228 | 131 | – | 196
11 | OC[C@@H](O)[C@H](O)[C@H](O)[C@@H](O)C1SCCCS1 | > 100 | > 100 | > 100 | > 100 | > 100 | > 100 | – | > 100 | > 100 | > 100
12 | Nc1ccc(Oc2ccc(C34CC5CC(C3)CC(c3ccc(Oc6ccc(N)c(O)c6)cc3)(C5)C4)cc2)cc1O | > 21.2 | 3.62 | 5.16 | 3.5 | 5.69 | – | > 100 | 4.37 | 4.07 | –
13 | O=C(O)Cn1cnc2c(=O)[nH]c(Nc3ccccc3)nc21 | > 100 | > 100 | > 100 | > 100 | > 100 | > 100 | – | > 100 | > 100 | > 100
14 | CSCCC(NOC(=O)Cc1ccccc1)P(=O)(O)c1ccccc1 (centres undefined) | > 100 | – | > 100 | > 100 | > 100 | > 100 | > 100 | > 100 | > 100 | > 100
15 | O=C1C2=C(c3ccccc31)C(c1ccc([N+](=O)[O-])cc1)NC(=S)N2 (centres undefined) | > 100 | > 100 | > 100 | > 100 | – | – | > 100 | > 100 | – | 98.6
16 | CC(C)C(N=C1CC2CCC1(C(=O)Nc1ccccc1O)C2(C)C)c1ccccc1 (centres undefined) | > 10 | > 10 | > 10 | > 10 | – | – | > 10 | > 10 | – | > 10
17 | Nc1nc(Cl)cc(OCC2(CO)CCCCC2)n1 | > 100 | – | > 100 | > 100 | > 100 | > 100 | – | > 100 | – | > 100
18 | COC(=O)[C@@]1(Cc2ccc(OC(C)=O)cc2)Cc2cc3ccccc3n2N1 | > 100 | > 100 | > 100 | > 100 | > 100 | 77.6 | – | > 100 | > 100 | –
19 | O=C(Cn1cc(I)c(C(=O)NCC(O)CO)n1)NCC(O)CO (centres undefined) | > 100 | > 100 | > 100 | > 100 | – | – | > 100 | > 100 | – | > 100
20 | O=C(O)C(=Cc1ccc(-c2ccc([N+](=O)[O-])cc2)o1)C(=O)O | > 100 | > 100 | > 100 | > 100 | > 100 | > 100 | > 100 | > 100 | – | > 100
21 | COc1ccc(/C=N/NC(=O)NCCNCCO)cc1 | > 100 | > 100 | > 100 | > 100 | – | – | > 100 | > 100 | – | > 100
22 | CC(=O)Nc1ccc(S(=O)(=O)Nc2cnc3ccccc3n2)cc1 | > 100 | > 100 | > 100 | > 100 | – | – | > 100 | > 100 | – | > 100
23 | C#CCN(Cc1ccc2nc(-c3ccccc3)c(Cl)nc2c1)c1ccc(Cl)c(Cl)c1 | > 100 | > 100 | > 100 | > 100 | – | – | > 100 | > 100 | – | > 100
24 | Nc1ccc2ncc(NCc3ccc(F)cc3)nc2c1 | > 100 | > 100 | > 100 | > 100 | – | – | > 100 | > 100 | – | > 100
25 | COC(=O)C1=C(C(=O)OC)SC2(S1)C(C(=O)OC)=C(C(=O)OC)Sc1c2ssc1=O | 2.96 | 15.4 | 1.78 | 2.22 | 3.75 | 3.57 | 2.86 | 1.57 | – | 11.4
